Our source for the inhibition values is US8344002B2, “Compound having β-secretase inhibitory activity” (priority 2007, dated 2013).

The assay deals with T1, recombinant human BACE-1 (rhBACE-1) (Homo sapiens, UniProt P56817).
T1 construct: expressed as only an extracellular region (amino acid 1-460 residues) of recombinant human β-secretase; His tag (C); purchased R&D systems (Minneapolis, Minn.); host or cells: murine myeloma cell line NS0
T1 sequence (P56817 46-460 limits assumed): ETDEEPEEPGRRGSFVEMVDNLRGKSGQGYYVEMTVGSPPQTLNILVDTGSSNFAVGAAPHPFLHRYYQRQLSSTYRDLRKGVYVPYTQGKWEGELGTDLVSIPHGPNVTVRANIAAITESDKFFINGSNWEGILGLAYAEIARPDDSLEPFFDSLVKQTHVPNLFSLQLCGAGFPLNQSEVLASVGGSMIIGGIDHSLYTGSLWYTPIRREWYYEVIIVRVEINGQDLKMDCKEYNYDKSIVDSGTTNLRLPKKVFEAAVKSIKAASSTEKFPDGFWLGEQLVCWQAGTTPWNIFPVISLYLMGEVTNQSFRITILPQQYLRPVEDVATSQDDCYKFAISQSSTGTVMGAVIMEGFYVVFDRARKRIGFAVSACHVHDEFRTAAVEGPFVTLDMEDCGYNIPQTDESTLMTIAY
Nature of the assay: BACE1 inhibitory activity, rhBACE-1 with fluorogenic peptide substrate, reverse phase HPLC. It is filed as biochemical. Conditions: inhibitor 2 μM; MES buffer pH 5.0, 37° C., 60 minutes; read-out: Inhibitory rate (%) (2 μM). An excerpt: Experiment Regarding Measurement of BACE1 Inhibitory Activity Enzyme Used in Measurement As an enzyme having β-secretase activity, recombinant human BACE-1 (rhBACE-1) purchased from R&D systems (Minneapolis, Minn.) was used. rhBACE-1 is expressed as only an extracellular region ([…] residues) of recombinant human β-secretase, with a His tag at its carboxyl terminus in murine myeloma cell line, NS0. Purified secreted rhBACE1 is a mixture of a pro entity (about 75 kDa) and a mature entity (about 72 kDa). […] Assessment of Enzyme Inhibitory Activity […] After incubation at 37° C. for 60 minutes, 20 μL of 20% trichloroacetic acid was added to stop the reaction. And, inhibition % was calculated by measuring a fluorescent intensity of the N-terminal fragment (Ex, 328 nm; […]
Regarding `O=C(N[C@@H](Cc1ccccc1)[C@H](O)C(=O)Nc1cccc(-c2nn[nH]n2)c1)c1cc(=O)cc(C(=O)N(Cc2ccccc2)Cc2ccccc2)o1` [Example 2], the inhibition at 2 µM came to 28.8%. For `CS(=O)(=O)Oc1cc(C(=O)NC(Cc2ccccc2)[C@H](O)C(=O)Nc2cccc(-c3nn[nH]n3)c2)nc(C(=O)N2COCC2c2ccccc2)c1` (stereo partly shown) [Example 16], the inhibition at 2 µM was found to be 95.6%. Then `C[C@@H](NC(=O)c1cc(=O)cc(C(=O)N[C@@H](Cc2ccccc2)[C@H](O)C(=O)Nc2cccc(-c3nn[nH]n3)c2)o1)c1ccc([N+](=O)[O-])cc1` [Example 3], with 26.8%.

In the case of `C[C@@H](NC(=O)c1cc(=O)cc(C(=O)N[C@@H](Cc2ccccc2)[C@H](O)C(=O)Nc2cccc(-c3nn[nH]n3)c2)o1)c1ccc(F)cc1` [Example 22], the inhibition at 2 µM is 75.8%. Then `CN(Cc1ccccc1)C(=O)c1cc(=O)cc(C(=O)N[C@@H](Cc2ccccc2)[C@H](O)C(=O)Nc2cccc(-c3nn[nH]n3)c2)o1` [Example 6], with 66.9%. In the case of `COc1ccc([C@@H](C)NC(=O)c2cc(=O)cc(C(=O)N[C@@H](Cc3ccccc3)[C@H](O)C(=O)Nc3cccc(-c4nn[nH]n4)c3)o2)cc1` [Example 5] it was 70.4%; in that of `CC(C)(NC(=O)c1cccc(C(=O)NC(Cc2ccccc2)[C@H](O)C(=O)Nc2cccc(-c3nn[nH]n3)c2)n1)c1ccccc1` (stereo partly shown) [Example 10], 69.1%. Then `O=C(NC(Cc1ccccc1)[C@H](O)C(=O)Nc1cccc(-c2nn[nH]n2)c1)c1cccc(C(=O)N2COCC2c2ccccc2)n1` (stereo partly shown) [Example 15], with 92.6%; and `C[C@@H](NC(=O)c1cc(=O)cc(C(=O)N[C@@H](Cc2ccccc2)[C@H](O)C(=O)Nc2cccc(-c3nn[nH]n3)c2)o1)c1ccccc1` [Example 1], with 70.1%.

As for `O=C(NC(Cc1ccccc1)[C@H](O)C(=O)Nc1cccc(-c2nn[nH]n2)c1)c1cc(=O)cc(C(=O)N2COCC2c2ccccc2)[nH]1` (stereo partly shown) [Example 14], the inhibition at 2 µM was determined as 82.7%.

On to `C[C@@H](NC(=O)c1cccc(C(=O)NC(Cc2ccccc2)[C@H](O)C(=O)Nc2cccc(-c3nn[nH]n3)c2)n1)c1ccccc1` (stereo partly shown) [Example 9], for which the inhibition at 2 µM was 65.6%.

Take `O=C(NC(Cc1ccccc1)[C@H](O)C(=O)Nc1cccc(-c2nn[nH]n2)c1)c1cc(=O)cc(C(=O)N2COCC2c2ccccc2)o1` (stereo partly shown) [Example 13]: the inhibition at 2 µM was determined as 95.6%. As for `CC(C)(NC(=O)c1cc(=O)cc(C(=O)N[C@@H](Cc2ccccc2)[C@H](O)C(=O)Nc2cccc(-c3nn[nH]n3)c2)o1)c1ccccc1` [Example 21], the inhibition at 2 µM was determined as 80.8%. In the case of `CC(C)(NC(=O)c1cc(=O)cc(C(=O)NC(Cc2ccccc2)[C@H](O)C(=O)Nc2cccc(-c3nn[nH]n3)c2)[nH]1)c1ccccc1` (stereo partly shown) [Example 8] it was 65.1%; in that of `CC(C)(NC(=O)c1cccc(C(=O)NC(Cc2ccccc2)[C@H](O)C(=O)NS(=O)(=O)C(F)(F)F)n1)c1ccccc1` (stereo partly shown) [Example 17], 37.4%. `C[C@@H](NC(=O)c1cc(=O)cc(C(=O)NC(Cc2ccccc2)[C@H](O)C(=O)Nc2cccc(-c3nn[nH]n3)c2)[nH]1)c1ccccc1` (stereo partly shown) [Example 7]: the inhibition at 2 µM was determined as 50.8%.
